Values quoted from earlier work as cited in US8569299B2, “Prolylcarboxypeptidase inhibitors” (Merck Sharp & Dohme Corp, priority 2010, dated 2013).
Read-outs that look alike come from different tables or passages of the source. Where no end group is shown, it is not given here.

Assays:
[1] = in vivo
[2] = overnight fasted animals, 2.5 ug
[3] = intracerebroventricular, rats
[4] = systemic administration, obese leptin deficient mice

Compound: CCN[C@@H](C)Cc1cccc(C(F)(F)F)c1 [dexfenfluramine]
- weight loss of body weight for drug compared to placebo [1]: 5%-10%

Compound: CCCCCCCCCCC[C@@H](C[C@@H]1OC(=O)[C@H]1CCCCCC)OC(=O)[C@H](CC(C)C)NC=O [orlistat]
- weight loss of body weight for drug compared to placebo [1]: 5%-10%

Compound: CC(C)(N)Cc1ccccc1 [phentermine]
- weight loss of body weight for drug compared to placebo [1]: 5%-10%

Compound: CC(C)CC(N(C)C)C1(c2ccc(Cl)cc2)CCC1 (stereo not shown) [sibutramine]
- weight loss of body weight for drug compared to placebo [1]: 5%-10%

Compound: alpha-melanocyte-stimulating hormone (SYSMEHFRWGKPV; ends and bridges not checked; UniProt P01189 138-150, looked up) [α-MSH1-13, peptide hormone derived from POMC, substrate of PRCP]
- reduction in food intake relative to control animals [2]: 40%

Compound: t-butyl carbamate-prolyl prolinal [BPP]
- overnight food intake [3]: suppression of overnight food intake
- overnight food intake [4]: suppression of overnight food intake
